From patent publication US20080194585A1, “Fungicidal Pyrazine Derivatives” (priority 2005, published 2008)
Marks after values point to notes of the source that are not given here.

Assays:
Plasmopara viticola = assay: Test D: grape downy mildew, spray after inoculation of grape seedlings; type: in vivo
Source text: Upon removal, disease ratings were made. […] A dash (-) indicates no test results.

Phytophthora infestans = assay: whole plant or invertebrate; type: in vivo
[1] = tested on: Puccinia recondita f. sp. tritici; assay: Test K: wheat leaf rust, preventive spray on wheat seedlings
Botrytis cinerea = assay: Test E: tomato botrytis, preventive spray on tomato seedlings
Septoria nodorum = assay: Test H: wheat glum blotch, preventive spray on wheat seedlings
Method: (the causal agent of wheat glum blotch) and incubated in a saturated atmosphere at 20° C. for 48 h, and then moved to a growth chamber at 22° C. for 5 days, after which disease ratings were made.

[2] = tested on: Erysiphe graminis f. sp. tritici; assay: Test L: wheat powdery mildew, preventive spray on wheat seedlings
Septoria tritici = assay: Test J: wheat leaf blotch, preventive spray on wheat seedlings; type: in vivo; details: 40 ppm (marked *); 100 = 100% disease control, 0 = no control
Source text: A dash (-) indicates no test results.

Pythium aphanidermatum = assay: Test A: bluegrass pythium blight, preventive spray on bluegrass seedlings; details: 40 ppm (marked *); 100 = 100% disease control, 0 = no control
Rhizoctonia oryzae = assay: Test G: turf brown patch, preventive spray on creeping bent grass seedlings; details: 100 = 100% disease control, 0 = no control
Method: (the causal agent of turf brown patch) and incubated in a saturated atmosphere at 27° C. for 24 h, and then moved to a growth chamber at 27° C. for 5 days, after which disease ratings were made.

[3] = tested on: Colletotrichum orbiculare; assay: Test B: cucumber Colletotrichum anthracnose, preventive spray on cucumber seedlings; details: 100 = 100% disease control
fusarium graminearium = assay: Test I: wheat head scab, preventive spray on wheat seedlings; details: 200 ppm; 100 = 100% disease control, 0 = no control relative to controls
Method: (the causal agent of wheat head scab) and incubated in a saturated atmosphere at 20° C. for 72 h, and then moved to a growth chamber at 22° C. for 5 days, after which disease ratings were made.

[4] = 40 ppm (marked *), 100 = 100% disease control, 0 = no control
[5] = 40 ppm (marked *), 0 = no control
[6] = 200 ppm, 100 = 100% disease control, 0 = no control relative to controls

Row | Structure (SMILES) | Test D disease control rating (Plasmopara viticola; [4]) | Test F disease control rating (Phytophthora infestans; [4]) | Test J disease control rating (Septoria tritici) | Test K disease control rating [1, 4] | Test E disease control rating (Botrytis cinerea; [4]) | Test H disease control rating (Septoria nodorum; [4]) | Test L disease control rating [2, 4] | Test A disease control rating (Pythium aphanidermatum) | Test G disease control rating (Rhizoctonia oryzae; 40 ppm (marked *)) | Test B disease control rating [3, 5] | other results
1 | CC(C)Cn1c(-c2ccc(C(F)(F)F)cc2)c(Cl)nc(-n2cccn2)c1=O [compound 36] | – | – | – | – | – | – | – | – | – | – | Test D disease control rating (Plasmopara viticola; 200 ppm): 0%; Test F disease control rating (Phytophthora infestans; 200 ppm): 0%; Test K disease control rating ([1]; 200 ppm): 0%; Test E disease control rating (Botrytis cinerea; 200 ppm): 0%; Test H disease control rating (Septoria nodorum; 200 ppm): 0%; Test L disease control rating ([2]; 200 ppm): 0%
2 | COc1ccc(-c2c(Cl)nc(-n3cccn3)c(=O)n2CC(C)C)cc1 [compound 37] | – | – | – | – | – | – | – | – | – | – | Test D disease control rating (Plasmopara viticola; 200 ppm): 0%; Test F disease control rating (Phytophthora infestans; 200 ppm): 0%; Test K disease control rating ([1]; 200 ppm): 89%; Test E disease control rating (Botrytis cinerea; 200 ppm): 100%; Test H disease control rating (Septoria nodorum; 200 ppm): 100%; Test L disease control rating ([2]; 200 ppm): 0%
3 | CC(C)Cn1c(-c2ccc(OC(F)(F)F)cc2)c(Cl)nc(-n2cccn2)c1=O [compound 38] | – | – | – | – | – | – | – | – | – | – | Test D disease control rating (Plasmopara viticola; 200 ppm): 0%; Test F disease control rating (Phytophthora infestans; 200 ppm): 0%; Test K disease control rating ([1]; 200 ppm): 0%; Test E disease control rating (Botrytis cinerea; 200 ppm): 0%; Test H disease control rating (Septoria nodorum; 200 ppm): 0%; Test L disease control rating ([2]; 200 ppm): 0%
4 | O=c1c(-n2cccn2)nc(Cl)c(-c2c(F)cccc2F)n1Cc1ccccc1F [compound 336] | 0* % | 0* % | 100* % | 100* % | 99* % | 99* % | 98* % | 0* % | 41* % | 0* % | –
5 | Cc1ccn(-c2nc(Cl)c(-c3c(F)cc(F)cc3F)n(-c3ccccc3F)c2=O)n1 [compound 355] | 0* % | 0* % | 100* % | 99* % | 99* % | 100* % | 57* % | 0* % | 66* % | 99* % | –
6 | Cc1ccn(-c2nc(Cl)c(-c3c(F)cc(F)cc3F)n(-c3cccc(F)c3)c2=O)n1 [compound 356] | 0* % | 0* % | 100* % | 100* % | 100* % | 100* % | 100* % | 0* % | 93* % | 99* % | –
7 | Cc1ccn(-c2nc(Cl)c(-c3c(F)ccc(F)c3F)n(-c3ccccc3)c2=O)n1 [compound 358] | 0* % | – | 100* % | 100* % | 99* % | 100* % | 91* % | 0* % | 92* % | 0* % | –
8 | O=c1c(-n2cccn2)nc(Cl)c(-c2c(F)cc(F)cc2F)n1-c1ccc(F)c(F)c1 [compound 365] | 16* % | 0* % | 100* % | 100* % | 98* % | 100* % | 96* % | 0* % | 99* % | 99* % | –
9 | Cc1ccn(-c2nc(Cl)c(-c3c(F)cc(F)cc3F)n(-c3ccc(F)c(F)c3)c2=O)n1 [compound 366] | 0* % | 0* % | 96* % | 100* % | 99* % | 100* % | 93* % | 0* % | 89* % | 99* % | –
10 | O=c1c(-n2cccn2)nc(Cl)c(-c2c(F)cc(F)cc2F)n1-c1cc(F)cc(F)c1 [compound 367] | 0* % | 0* % | 99* % | 100* % | 99* % | 100* % | 99* % | 0* % | 99* % | 100* % | –
11 | Cc1ccn(-c2nc(Cl)c(-c3c(F)cc(F)cc3F)n(-c3cc(F)cc(F)c3)c2=O)n1 [compound 368] | 0* % | 0* % | 100* % | 100* % | 99* % | 100* % | 99* % | 0* % | 99* % | 99* % | –
12 | O=c1c(-n2cccn2)nc(Cl)c(-c2c(F)cc(F)cc2F)n1-c1cccc(F)c1F [compound 369] | 0* % | 0* % | 100* % | 100* % | 99* % | 100* % | 98* % | 0* % | 99* % | 100* % | –
13 | Cc1ccn(-c2nc(Cl)c(-c3c(F)cc(F)cc3F)n(-c3cccc(F)c3F)c2=O)n1 [compound 370] | 0* % | 0* % | 100* % | 100* % | 99* % | 100* % | 96* % | 0* % | 92* % | 100* % | –
14 | O=c1c(-n2cccn2)nc(Cl)c(-c2c(F)cc(F)cc2F)n1-c1ccc(Cl)cc1 [compound 371] | 0* % | 0* % | 100* % | 100* % | 99* % | 100* % | 98* % | 0* % | 99* % | 99* % | –
15 | Cc1ccn(-c2nc(Cl)c(-c3c(F)cc(F)cc3F)n(-c3ccc(Cl)cc3)c2=O)n1 [compound 372] | 0* % | 0* % | 100* % | 100* % | 99* % | 100* % | – | 0* % | – | 100* % | Test L disease control rating ([2]; 200 ppm, 100 = 100% disease control, 0 = no control): 98%; Test G disease control rating (Rhizoctonia oryzae; 200 ppm): 82%
16 | C#CCNC(=O)c1nc(Cl)c(-c2c(F)cc(F)cc2F)n(CC(C)CC)c1=O (centres unmarked) [compound 416] | – | – | – | – | – | – | – | – | – | – | Test I disease control rating (fusarium graminearium): 0%; Test K disease control rating [1, 6]: 100%; Test E disease control rating (Botrytis cinerea; [6]): 99%; Test H disease control rating (Septoria nodorum; [6]): 100%; Test L disease control rating [2, 6]: 99%; Test B disease control rating ([3]; 200 ppm, 0 = no control relative to controls): 99%
